Target: BRD4-BD1 (44-164) (Homo sapiens (Human), UniProt O60885)
Assay: Alphascreen binding assay BRD4-BD1
Conditions: BRD4(1) H4; read-out: Biochemical activity (IC50 μM) BRD4(1) H4
Summary of the method: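 AlphaScreen signal (nickel acceptor, streptavidin donor beads, 7.5 µg/ml each, read 30 min after addition) reports displacement of biotin-H4 K5/K8/K12/K16-acetyl peptide from His-BRD4 BD1 (44-164) or tandem BD12 (1-477).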

SMILES | IC50
CCc1[nH]c2ncc(-c3c(C)noc3C)cc2c1C(O)c1cccc(OC(F)(F)F)c1 (stereo not drawn) [P-0043, [5-(3,5-dimethylisoxazol-4-yl)-2-ethyl-1H-pyrrolo[2,3-b]pyridin-3-yl]-[3-(trifluoromethoxy)phenyl]methanol] | < 1 µM
Cc1noc(C)c1-c1cnc2c(-c3cnn(C)c3)cn(S(=O)(=O)c3ccc(F)cc3)c2c1 [P-0123, 4-[1-(4-fluorophenyl)sulfonyl-3-(1-methyl-pyrazol-4-yl)pyrrolo[3,2-b]pyridin-6-yl]-3,5-dimethyl-isoxazole] | < 1 µM
Cc1noc(C)c1-c1cnc2c(-c3cnn(C)c3)cn(Cc3ccccc3C(F)(F)F)c2c1 [P-0188, 3,5-dimethyl-4-[3-(1-methylpyrazol-4-yl)-1-[[2-(trifluoromethyl)phenyl]methyl]pyrrolo[3,2-b]pyridin-6-yl]isoxazole] | < 1 µM
Cc1noc(C)c1-c1cnc2c(c1)c(CC1CCN(C(=O)c3ccccc3)CC1)cn2C [P-0115, [4-[[5-(3,5-dimethylisoxazol-4-yl)-1-methyl-pyrrolo[2,3-b]pyridin-3-yl]methyl]-1-piperidyl]-phenyl-methanone] | < 1 µM
COc1ncc(F)cc1C(O)c1c[nH]c2ncc(-c3c(C)noc3C)cc12 (stereo not drawn) [P-0022, [5-(3,5-dimethylisoxazol-4-yl)-1H-pyrrolo[2,3-b]pyridin-3-yl]-(5-fluoro-2-methoxy-3-pyridyl)methanol] | < 1 µM
Cc1noc(C)c1-c1cnc2c(-c3cnn(C4CC4)c3)cn(C(C)c3ccccc3)c2c1 (stereo not drawn) [P-0216, 4-[3-(1-cyclopropylpyrazol-4-yl)-1-(1-phenylethyl)pyrrolo[3,2-b]pyridin-6-yl]-3,5-dimethyl-isoxazole] | < 1 µM
Cc1noc(C)c1-c1cnc2c(-c3cnn(C)c3)cn(C(CO)c3ccccc3)c2c1 (stereo not drawn) [P-0192, 2-[6-(3,5-dimethylisoxazol-4-yl)-3-(1-methylpyrazol-4-yl)pyrrolo[3,2-b]pyridin-1-yl]-2-phenyl-ethanol] | < 1 µM
Cc1noc(C)c1-c1cnc2c(-c3cnn(C)c3)cn(Cc3cscn3)c2c1 [P-0171, 3,5-dimethyl-4-[3-(1-methylpyrazol-4-yl)-1-(thiazol-4-ylmethyl)pyrrolo[3,2-b]pyridin-6-yl]isoxazole] | < 1 µM
Cc1noc(C)c1-c1cnc2[nH]cc(Sc3cccc(F)c3)c2c1 [P-0141, 4-[3-(3-fluorophenyl)sulfanyl-1H-pyrrolo[2,3-b]pyridin-5-yl]-3,5-dimethyl-isoxazole] | < 1 µM
Cc1noc(C)c1-c1cnc2[nH]cc(C(O)c3cccc(OC(F)(F)F)c3)c2c1 (stereo not drawn) [P-0039, [5-(3,5-dimethylisoxazol-4-yl)-1H-pyrrolo[2,3-b]pyridin-3-yl]-[3-(trifluoromethoxy)phenyl]methanol] | < 1 µM
CCc1[nH]c2ncc(-c3c(C)noc3C)cc2c1CC1CCC(F)(F)CC1 [P-0051, 4-[3-[(4,4-difluoro-cyclohexyl)methyl]-2-ethyl-1H-pyrrolo[2,3-b]pyridin-5-yl]-3,5-dimethyl-isoxazole] | < 1 µM
C=CCn1cc(-c2cn(S(=O)(=O)C(C)CC)c3cc(-c4c(C)noc4C)cnc23)cn1 (stereo not drawn) [P-0138, 4-[3-(1-allylpyrazol-4-yl)-1-sec-butyl-sulfonyl-pyrrolo[3,2-b]pyridin-6-yl]-3,5-dimethyl-isoxazole] | < 1 µM
Cc1noc(C)c1-c1cnc2c(-c3cnn(C)c3)cn(C(CF)c3ccccc3)c2c1 (stereo not drawn) [P-0187, 4-[1-(2-fluoro-1-phenyl-ethyl)-3-(1-methylpyrazol-4-yl)pyrrolo[3,2-b]pyridin-6-yl]-3,5-dimethyl-isoxazole] | < 1 µM
Cc1noc(C)c1-c1cnc2[nH]cc(Cc3cccc4c3OC(F)(F)O4)c2c1 [P-0048, 4-[3-[(2,2-difluoro-1,3-benzodioxol-4-yl)methyl]-1H-pyrrolo[2,3-b]pyridin-5-yl]-3,5-dimethyl-isoxazole] | < 1 µM
Cc1noc(C)c1-c1cnc2c(-c3cnn(C)c3)cn(Cc3c(F)cccc3F)c2c1 [P-0173, 4-[1-[(2,6-difluorophenyl)methyl]-3-(1-methylpyrazol-4-yl)pyrrolo[3,2-b]pyridin-6-yl]-3,5-dimethyl-isoxazole] | < 1 µM
CCS(=O)(=O)n1cc(C(OC)C2CCC(F)(F)CC2)c2cc(-c3c(C)noc3C)cnc21 (stereo not drawn) [P-0078, 4-[3-[(4,4-difluoro-cyclohexyl)-methoxy-methyl]-1-ethylsulfonyl-pyrrolo[2,3-b]pyridin-5-yl]-3,5-dimethyl-isoxazole] | < 1 µM
Cc1noc(C)c1-c1cnc2[nH]cc(P(C)(=O)c3ccccc3)c2c1 (stereo not drawn) [P-0165, 3,5-dimethyl-4-[3-[methyl(phenyl)phosphoryl]-1H-pyrrolo[2,3-b]pyridin-5-yl]isoxazole] | < 1 µM
Cc1noc(C)c1-c1cnc2ccn(S(=O)(=O)C3CCCCC3)c2c1 [P-0066, 4-(1-cyclohexylsulfonyl-pyrrolo[3,2-b]pyridin-6-yl)-3,5-dimethyl-isoxazole] | < 1 µM

SMILES | IC50
Cc1noc(C)c1-c1cnc2[nH]cc(CC3CCC(F)(F)CC3)c2c1 [P-0034, 4-[3-[(4,4-difluoro-cyclohexyl)methyl]-1H-pyrrolo[2,3-b]pyridin-5-yl]-3,5-dimethyl-isoxazole] | < 1 µM
CCn1cc(-c2cn(S(=O)(=O)c3ccccc3F)c3cc(-c4c(C)noc4C)cnc23)cn1 [P-0125, 4-[3-(1-ethylpyrazol-4-yl)-1-(2-fluorophenyl)sulfonyl-pyrrolo[3,2-b]pyridin-6-yl]-3,5-dimethyl-isoxazole] | < 1 µM
Cc1noc(C)c1-c1cnc2c(-c3cnn(C(F)F)c3)cn(S(=O)(=O)C3CCCC3)c2c1 [P-0133, 4-[1-cyclopentylsulfonyl-3-[1-(difluoromethyl)pyrazol-4-yl]pyrrolo[3,2-b]pyridin-6-yl]-3,5-dimethyl-isoxazole] | < 1 µM
CCCS(=O)(=O)n1cc(-c2cnn(CC(F)(F)F)c2)c2ncc(-c3c(C)noc3C)cc21 [P-0150, 3,5-dimethyl-4-[1-propylsulfonyl-3-[1-(2,2,2-trifluoroethyl)pyrazol-4-yl]pyrrolo[3,2-b]pyridin-6-yl]isoxazole] | < 1 µM
Cc1noc(C)c1-c1cnc2[nH]cc(C(O)c3c(F)cccc3Cl)c2c1 (stereo not drawn) [P-0021, (2-chloro-6-fluoro-phenyl)-[5-(3,5-dimethylisoxazol-4-yl)-1H-pyrrolo[2,3-b]pyridin-3-yl]methanol] | < 1 µM
Cc1noc(C)c1-c1cnc2c(C#CCF)cn(S(=O)(=O)C3CCCC3)c2c1 [P-0158, 4-[1-cyclopentylsulfonyl-3-(3-fluoroprop-1-ynyl)pyrrolo[3,2-b]pyridin-6-yl]-3,5-dimethyl-isoxazole] | < 1 µM
COCCn1cc(-c2cn(S(=O)(=O)c3ccccc3)c3cc(-c4c(C)noc4C)cnc23)cn1 [P-0147, 4-[1-(benzenesulfonyl)-3-[1-(2-methoxyethyl)pyrazol-4-yl]pyrrolo[3,2-b]pyridin-6-yl]-3,5-dimethyl-isoxazole] | < 1 µM
Cc1noc(C)c1-c1cnc2c(-c3cn[nH]c3)cn(C(C)c3ccccc3)c2c1 (stereo not drawn) [P-0199, 3,5-dimethyl-4-[1-(1-phenyl-ethyl)-3-(1H-pyrazol-4-yl)pyrrolo[3,2-b]pyridin-6-yl]isoxazole] | < 1 µM
COC(c1ccccc1Cl)c1c[nH]c2ncc(-c3c(C)noc3C)cc12 (stereo not drawn) [P-0020, 4-[3-[(2-chlorophenyl)-methoxy-methyl]-1H-pyrrolo[2,3-b]pyridin-5-yl]-3,5-dimethyl-isoxazole] | < 1 µM
Cc1noc(C)c1-c1cnc2[nH]c(C)c(Cc3cccnc3)c2c1 [P-0005, 3,5-dimethyl-4-[2-methyl-3-(3-pyridylmethyl)-1H-pyrrolo[2,3-b]pyridin-5-yl]isoxazole] | < 1 µM
Cc1noc(C)c1-c1cnc2c(-c3cnn(CC(F)(F)F)c3)cn(S(=O)(=O)C3CCCC3)c2c1 [P-0149, 4-[1-cyclopentyl-sulfonyl-3-[1-(2,2,2-trifluoroethyl)pyrazol-4-yl]pyrrolo[3,2-b]pyridin-6-yl]-3,5-dimethyl-isoxazole] | < 1 µM
Cc1noc(C)c1-c1cnc2c(CC3CC3)cn(S(=O)(=O)C3CCCCC3)c2c1 [P-0075, 4-[1-cyclohexylsulfonyl-3-(cyclopropylmethyl)pyrrolo[3,2-b]pyridin-6-yl]-3,5-dimethyl-isoxazole] | < 1 µM
CCCS(=O)(=O)n1cc(-c2cnn(C3CCOC3)c2)c2ncc(-c3c(C)noc3C)cc21 (stereo not drawn) [P-0154, 3,5-dimethyl-4-[1-propylsulfonyl-3-(1-tetrahydrofuran-3-ylpyrazol-4-yl)pyrrolo[3,2-b]pyridin-6-yl]isoxazole] | < 1 µM
Cc1noc(C)c1-c1cnc2c(-c3cnn(C)c3)cn(Cc3ccccn3)c2c1 [P-0198, 3,5-dimethyl-4-[3-(1-methylpyrazol-4-yl)-1-(2-pyridylmethyl)pyrrolo[3,2-b]pyridin-6-yl]isoxazole] | < 1 µM
Cc1noc(C)c1-c1cnc2c(-c3cnn(C)c3)cn(Cc3c(Cl)cccc3Cl)c2c1 [P-0189, 4-[1-[(2,6-dichlorophenyl)methyl]-3-(1-methylpyrazol-4-yl)pyrrolo[3,2-b]pyridin-6-yl]-3,5-dimethyl-isoxazole] | < 1 µM
C=CCn1cc(-c2cn(S(=O)(=O)c3ccccc3)c3cc(-c4c(C)noc4C)cnc23)cn1 [P-0126, 4-[3-(1-allylpyrazol-4-yl)-1-(benzenesulfonyl)pyrrolo[3,2-b]pyridin-6-yl]-3,5-dimethyl-isoxazole] | < 1 µM
CCCS(=O)(=O)n1cc(-c2cnn(CCOC)c2)c2ncc(-c3c(C)noc3C)cc21 [P-0152, 4-[3-[1-(2-methoxy-ethyl)pyrazol-4-yl]-1-propylsulfonyl-pyrrolo[3,2-b]pyridin-6-yl]-3,5-dimethyl-isoxazole] | < 1 µM
COc1ncc(-c2cn(S(=O)(=O)C3CCCC3)c3cc(-c4c(C)noc4C)cnc23)cn1 [P-0105, 4-[1-cyclopentylsulfonyl-3-(2-methoxypyrimidin-5-yl)pyrrolo[3,2-b]pyridin-6-yl]-3,5-dimethyl-isoxazole] | < 1 µM
